Assays:
Assay type in all cases: in vivo
[1] = test system: Spodoptera littoralis (Egyptian Cotton Leaf Worm); assay: Example B13: Breakpoint (BP80) against Spodoptera littoralis; settings: lowest concentration which gives 80% larval mortality; larval feeding/contact
Experimental: (§1) Cotton leaf discs were placed onto agar in 24-well microtiter plates and sprayed with aqueous test solutions prepared from 10'000 ppm DMSO stock solutions. After drying the leaf discs were infested with five L1 larvae. The samples were assessed for mortality, anti-feeding effect, and growth inhibition in comparison to untreated samples 3 days after infestation. Control of Spodoptera littoralis by a test sample is given when at least one of the categories mortality, anti-feedant effect, and growth inhibition is higher than the untreated sample.
(§2) Insecticidal action against Diabrotica balteata (Corn root worm), Plutella xylostella (Diamond black moth), and Spodoptera littoralis (Egyptian cotton leaf worm). The tests were carried out as described in biological examples B2, B6 and B7, respectively, with the larval feeding/contact activity being reported as Breakpoint (BP80) values in parts per million (i.e. the lowest concentration which gives 80% larval mortality).

[2] = test system: Thrips tabaci (Onion Thrips); assay: Example B10: Thrips tabaci feeding/contact activity; settings: 144 h, application rate of 200 ppm, 6 days after infestation
Experimental: (§3) Sunflower leaf discs were placed on agar in 24-well microtiter plates and sprayed with aqueous test solutions prepared from 10'000 ppm DMSO stock solutions. After drying the leaf discs were infested with a thrips population of mixed ages. The samples were assessed for mortality 6 days after infestation.

[3] = test system: Diabrotica balteata (Corn Root Worm); assay: Example B2: Diabrotica balteata, maize sprouts, L2 larvae; settings: 96 h, application rate of 200 ppm, 4 days after infestation, read-out: effect in at least one of the two categories (mortality or growth inhibition)
Experimental: (§4) Maize sprouts placed onto an agar layer in 24-well microtiter plates were treated with aqueous test solutions prepared from 10'000 ppm DMSO stock solutions by spraying. After drying, the plates were infested with L2 larvae (6 to 10 per well). The samples were assessed for mortality and growth inhibition in comparison to untreated samples 4 days after infestation. The following compounds gave an effect of at least 80% in at least one of the two categories (mortality or growth inhibition) at an application rate of 200 ppm: P1, P2, P3, P4, P5, P6, P7, P8, P9, P10, P11, P12, P13, P14, and P15.

[4] = test system: Diabrotica balteata (Corn Root Worm); assay: Example B13: Breakpoint (BP80) against Diabrotica balteata; settings: lowest concentration which gives 80% larval mortality; larval feeding/contact
Experimental: as §4, §2

[5] = test system: Plutella xylostella (Diamond Back Moth); assay: Example B6: Plutella xylostella, artificial diet, L2 larvae; settings: 120 h, application rate of 200 ppm, 5 days after infestation, read-out: effect in at least one of the two categories (mortality or growth inhibition)
Experimental: (§5) 24-well microtiter plates with artificial diet were treated with aqueous test solutions prepared from 10'000 ppm DMSO stock solutions by pipetting. After drying, the plates were infested with L2 larvae (10 to 15 per well). The samples were assessed for mortality and growth inhibition in comparison to untreated samples 5 days after infestation. The following compounds gave an effect of at least 80% in at least one of the two categories (mortality or growth inhibition) at an application rate of 200 ppm: P1, P2, P3, P4, P6, P8, P9, P10, P11, P12, P13, P14 and P15.

[6] = test system: Euschistus heros (Neotropical Brown Stink Bug); assay: Example B3: Euschistus heros, soybean leaves, N2 nymphs; settings: 120 h, application rate of 200 ppm, 5 days after infestation, read-out: effect in at least one of the two categories (mortality or growth inhibition)
Experimental: Soybean leaves on agar in 24-well microtiter plates were sprayed with aqueous test solutions prepared from 10'000 ppm DMSO stock solutions. After drying the leaves were infested with N2 nymphs. The samples were assessed for mortality and growth inhibition in comparison to untreated samples 5 days after infestation. The following compounds gave an effect of at least 80% in at least one of the two categories (mortality or growth inhibition) at an application rate of 200 ppm: • P1, P3, P8, P9, P10, P13, P14, and P15

[7] = test system: Plutella xylostella (Diamond black moth); assay: Example B13: Breakpoint (BP80) against Plutella xylostella; settings: lowest concentration which gives 80% larval mortality; larval feeding/contact
Experimental: as §5, §2

[8] = test system: Spodoptera littoralis (Egyptian Cotton Leaf Worm); assay: Example B7: Spodoptera littoralis, cotton leaf discs, L1 larvae; settings: foliar, 72 h, application rate of 200 ppm, 3 days after infestation
Experimental: as §1

[9] = test system: Spodoptera littoralis (Egyptian Cotton Leaf Worm); assay: Example B8: Spodoptera littoralis systemic activity; settings: 144 h, test rate of 12.5 ppm, lettuce, 6 days after infestation, read-out: effect in at least one of the three categories (mortality, anti-feeding, or growth inhibition)
Text: Test compounds were applied by pipette from 10'000 ppm DMSO stock solutions into 24-well plates and mixed with agar. Lettuce seeds were placed onto the agar and the multi well plate was closed by another plate which contained also agar. After 7 days the compound was absorbed by the roots and the lettuce grew into the lid plate. The lettuce leaves were then cut off into the lid plate. Spodoptera eggs were pipetted through a plastic stencil onto a humid gel blotting paper and the lid plate was closed with it. The samples were assessed for mortality, anti-feedant effect and growth inhibition in comparison to untreated samples 6 days after infestation. The following compounds gave an effect of at least 80% in at least one of the three categories (mortality, anti-feeding, or growth inhibition) at a test rate of 12.5 ppm: • P10, P13, P14 and P15.

[10] = test system: Myzus persicae (Green Peach Aphid); assay: Example B4: Myzus persicae feeding/contact activity; settings: 144 h, application rate of 200 ppm, 6 days after infestation
Experimental: Sunflower leaf discs were placed onto agar in a 24-well microtiter plate and sprayed with aqueous test solutions prepared from 10'000 ppm DMSO stock solutions. After drying, the leaf discs were infested with an aphid population of mixed ages. The samples were assessed for mortality 6 days after infestation.

[11] = test system: Tetranychus urticae (Two-Spotted Spider Mite); assay: Example B9: Tetranychus urticae feeding/contact activity; settings: 192 h
Experimental: as §3, with “Bean” for “Sunflower”, “discs” for “discs were placed”, “were” for “and”, “mite” for “thrips”, “on mixed population (mobile stages) 8” for “6”

[12] = test system: Myzus persicae (Green Peach Aphid); assay: Example B5: Myzus persicae systemic activity; settings: 144 h, test rate of 24 ppm, pea seedling roots, 6 days
Experimental: Roots of pea seedlings infested with an aphid population of mixed ages were placed directly into aqueous test solutions prepared from 10'000 DMSO stock solutions. The samples were assessed for mortality 6 days after placing seedlings into test solutions.

SMILES	BP80 Values Spodoptera littoralis [1]	mortality at 200 ppm [2]	percent effect (mortality or growth inhibition) at 200 ppm [3]	BP80 Values Diabrotica balteata [4]	percent effect (mortality or growth inhibition) at 200 ppm [5]	percent effect (mortality or growth inhibition) at 200 ppm [6]	BP80 Values Plutella xylostella [7]	percent control (mortality, anti-feedant effect or growth inhibition) at 200 ppm [8]	percent effect (mortality, anti-feeding or growth inhibition) at 12.5 ppm [9]	mortality at 200 ppm [10]	mortality at 200 ppm [11]	mortality at 24 ppm [12]
CCS(=O)(=O)c1ccc(-n2ccc(C(F)(F)F)n2)nc1-c1nc2cc(C(F)(F)F)ncc2n1C [Compound P3, 2-[3-ethylsulfonyl-6-[3-(trifluoromethyl)pyrazol-1-yl]-2-pyridyl]-3-methyl-6-(trifluoromethyl)imidazo[4,5-c]pyridine]	0.8 ppm	≥ 80%	≥ 80%	0.8 ppm	≥ 80%	≥ 80%	12 ppm	≥ 80%	–	–	–	–
CCS(=O)(=O)c1ccc(-c2ncccn2)nc1-c1nc2cc(SC(F)(F)F)ncc2n1C [Compound P10, 2-(3-ethylsulfonyl-6-pyrimidin-2-yl-2-pyridyl)-3-methyl-6-(trifluoromethylsulfanyl)imidazo[4,5-c]pyridine]	–	≥ 80%	≥ 80%	–	≥ 80%	≥ 80%	–	≥ 80%	≥ 80%	≥ 80%	≥ 80%	≥ 80%

— patent US10138238B2, “Pesticidally active polycyclic derivatives with sulfur containing substituents” (Syngenta Participations AG, priority 2015, dated 2018)
